# Measured values taken from PMC8803746, “Two experts and a newbie: [^18F]PARPi vs [^18F]FTT vs [^18F]FPyPARP—a comparison of PARP imaging agents” (European Journal of Nuclear Medicine and Molecular Imaging, 2021).
# Where “and” joins values, the source holds several entries; their conditions need not be identical. Identical values can stand only once. Like-named read-outs stand apart in the source and are kept apart here.
# Key:
# HCC1937 cells = test: In vitro radiotracer uptake, acid wash; assay type: cell-based, human; conditions: glycine-HCl in PBS 50 mM pH 2.8 vs medium
# Description: For the acid wash, cells were distributed in 96-well filter plates as described before and incubated with the radiotracer solution for 30 min at 37 °C. After an initial wash with 100 µl medium, cells were either washed twice (1: 100 µl, 2: 200 µl) with medium or with glycine–HCl in PBS (50 mM, pH 2.8) followed by a final wash with 200 µl medium and measured in a gamma counter.
# [1] = Experimental logP and logD determination (1-octanol/water or PBS, gamma counter); assay type: physicochemical; conditions: experimentally determined; for logD: 1-octanol/PBS; for logP: 1-octanol/water
# Description: One microliter radiotracer solution (0.4 MBq) was added to a mixture of 500 µl water or PBS and 500 µl 1-octanol. After thorough shaking, the suspension was shortly centrifuged for phase separation, samples were drawn from each phase, and radioactivity concentration was measured in a gamma counter (WIZARD2, PerkinElmer, Waltham, MA, USA).
# [2] = Serum stability analysis in mouse serum; assay type: in vitro ADME; conditions: C57BL/6 J mouse serum, 37 °C, over 240 min, HPLC
# Description: (§1) Serum stability was assessed by mixing [^18F]FPyPARP solution 1:1 with C57BL/6 J mouse or human (blood type AB + , Sigma-Aldrich, Steinheim, Germany) serum. After 0-, 30-, 60-, 120-, and 240-min incubation at 37 °C, samples were drawn and the proteins were precipitated by adding ice-cold MeCN to a final concentration of 50%. The supernatant after centrifugation (12,100 × g, 90 s) was analyzed by HPLC as described for radiotracer quality control.
# HCC1937 xenografts = test: PET/MR imaging and ex vivo biodistribution in xenograft-bearing mice; parameters: species or system NOD.CB17-Prkdc^scid/J mice; conditions: for Xenograft uptake (TACs from dynamic PET): 1-h dynamic PET; for tumor-to-muscle ratio (TMR) / tumor-to-blood ratio (TBR): ex vivo biodistribution; for tumor-to-muscle ratio (TMR) / tumor-to-blood ratio (TBR) / liver-to-kidney ratio (LKR): mean value; for Renal clearance / bladder uptake in PET images: i.v., dynamic PET, minutes 50-60
# Description: (§2) All animal experiments were performed according to the German animal welfare act and approved by the local authorities (Regierungspräsidium Tübingen, R3/18). Animals were housed in individually ventilated cages (IVCs, 5 mice per cage) with bedding and enrichment, and food and water was provided ad libitum. Animals were kept under isoflurane anesthetic (1.5% in pure oxygen, 1.5 l/min) during the experiments. In 1:1 ice-cold Matrigel (Thermo Scientific)/PBS, 1 × 10^7 cells were injected subcutaneously in the right shoulder area of 7-week-old female NOD.CB17-Prkdc^scid/J mice (n = 10 per tracer). After the xenografts reached a suitable size (302 ± 152 mm^3), mice were injected with 12.45 ± 0.87 MBq, 12.68 ± 0.39 MBq, and 12.94 ± 0.45 MBq, respectively, of [^18F]PARPi, [^18F]FPyPARP, and [^18F]FTT and subjected to 1-h dynamic (n = 7 per tracer) or 10-min static (n = 3 per tracer, 1-h resting uptake) PET imaging (Inveon D-PET, Siemens, Knoxville, TN, USA) with subsequent magnetic resonance (MR) anatomical scans using a 7-T Biospec 70/30 USR (Clinscan, Bruker Biospin MRI GmbH) and a T2-weighted spin echo sequence. Five mice of each dynamically acquired group underwent a second, 10-min static PET scan 2-h post-injection (p.i.). Mice were sacrificed by cervical dislocation, the collected organs were weighed, and the tissue uptake was determined by gamma-counting (WIZARD2). Liver and kidney tissue was frozen in Tissue-Tek (Labtech, East Sussex, Britain) and 20-µm slices were prepared for autoradiography. A storage phosphor screen (Molecular Dynamics, Caesarea, Israel) was exposed to the sections for 18 h and scanned at a resolution of 100 µm/px with a STORM phosphor imager (Molecular Dynamics). PET image reconstruction and correlation with MR images was performed with Inveon Acquisition Workplace and Inveon Research Workplace, respectively, using a user-defined dynamic framing and an ordered subset expectation maximization (OSEM3D) algorithm. Regions of interest (ROIs) were drawn according to the acquired MR images and co-registered with the PET data to obtain time-activity curves (TACs).
# Statistical analyses are represented as mean values ± standard deviation. Analyses were performed using GraphPad Prism 9 and non-parametric t tests (comparison of two groups) and one-way ANOVA (comparison of more than two groups). Blood half-life was calculated using a two-phase decay fit in GraphPad Prism 8. p values < 0.05 were considered statistically significant according to the software (*p < 0.05, **p < 0.01, ***p < 0.001, ****p < 0.0001).
# [3] = Blood half-life, two-phase decay fit; assay type: in vivo, NOD.CB17-Prkdc^scid/J mice; conditions: calculated with two-phase decay fit
# Description: as §2, with “PET image reconstruction and correlation with MR images was performed with Inveon Acquisition Workplace and Inveon Research Workplace, respectively, using a user-defined dynamic framing and an ordered subset expectation maximization (OSEM3D) algorithm. Regions of interest (ROIs) were drawn according to the acquired MR images and co-registered with the PET data to obtain time-activity curves (TACs).” left out
# Statistical analyses are represented as mean values ± standard deviation. […] Blood half-life was calculated using a two-phase decay fit in GraphPad Prism 8. p values < 0.05 were considered statistically significant according to the software (*p < 0.05, **p < 0.01, ***p < 0.001, ****p < 0.0001).
# [4] = Serum stability analysis in human serum; assay type: in vitro ADME; conditions: 37 °C, over 240 min, HPLC
# Description: as §1
# [5] = parameters: method as in PMID 32245901; conditions: cited from earlier work
# [6] = parameters: method as in PMID 30389822; conditions: cited from earlier work
# [7] = parameters: method as in PMID 30389822; conditions: cited from earlier work; remark: listed apart in the source
# [8] = system: ABCB1 (encoding MDR1 P-glycoprotein); parameters: method as in PMID 24700236; conditions: cited from earlier work
# [9] = parameters: method as in Lynparza monograph, AstraZeneca; conditions: reported value; ref Lynparza monograph, AstraZeneca; cited from earlier work
Compound,Radiotracer uptake after acidic wash compared to medium wash (HCC1937 cells),logD [1],logP [1],Xenograft uptake (TACs from dynamic PET) (HCC1937 xenografts),tumor-to-muscle ratio (TMR) (HCC1937 xenografts; 1.5 h p.i.),tumor-to-blood ratio (TBR) (HCC1937 xenografts; 2.5 h p.i.),tumor-to-muscle ratio (TMR) (HCC1937 xenografts; 2.5 h p.i.),liver-to-kidney ratio (LKR) (HCC1937 xenografts; 2.5 h p.i.),Renal clearance / bladder uptake in PET images (HCC1937 xenografts),Blood half-life [3] [min],also measured
"O=C(c1ccc(F)nc1)N1CCN(C(=O)c2cc(Cc3n[nH]c(=O)c4ccccc34)ccc2F)CC1 [[^18F]FPyPARP, 4-(4-Fluoro-3-(4-(6-fluoronicotinoyl)piperazine-1-carbonyl)benzyl)phthalazine-1(2H)-one]",No difference,1.16,1.16,within the same range,1.99,3.99 ± 0.99 and 3.99,2.46,0.60,all animals exhibiting strong radioactive signal in the bladder,2.6 ± 1.4,"Serum stability [2]: no significant radiometabolites and good radiotracer stability over 240 min; Change of liver-to-kidney ratio between the 1.5 and 2.5 h time points (HCC1937 xenografts; 1.5 h vs 2.5 h p.i.): decreased; Liver uptake (TACs) (HCC1937 xenografts; early time points, in direct comparison to [^18F]PARPi): lower uptake values; Serum stability [4]: no significant radiometabolites and good radiotracer stability over 240 min"
O=C1NCCn2c(-c3ccc(OCC[18F])cc3)nc3cccc1c32 [[^18F]FTT],No difference,1.94,1.1,higher overall xenograft uptake,–,2.46 ± 0.35 and 2.46,3.42,–,no noticeable renal clearance,2.1 ± 0.5,tumor-to-liver ratio (TLR) (HCC1937 xenografts; 1.5 h and 2.5 h p.i.): significantly higher at both time points
O=C(c1ccc([18F])cc1)N1CCN(C(=O)c2cc(Cc3n[nH]c(=O)c4ccccc34)ccc2F)CC1 [[^18F]PARPi],significantly higher uptake,2.09,2.09,within the same range,5.3,3.41 ± 0.83,–,1.37,some of the animals showed renal excretion,3 ± 0.7,Time of first appearance of a radiometabolite ([5]; first-in-human clinical studies): 25 min; Renal clearance ([5]; in humans): 30%
O=C(c1cc(Cc2n[nH]c(=O)c3ccccc23)ccc1[18F])N1CCN(C(=O)C2CC2)CC1 [[^18F]olaparib],–,–,–,–,–,–,–,–,–,–,Clearance route [6]: only shows hepatobiliary clearance; calculated logP [7]: 2.02
O=C(c1cc(Cc2n[nH]c(=O)c3ccccc23)ccc1F)N1CCN(C(=O)C2CC2)CC1 [olaparib],–,–,–,–,–,–,–,–,–,–,Efflux transporter substrate [8]: efflux transporter of olaparib; logD [9]: 1.49
